Laboratory results published in US20020040018A1, “Subtype selective melatonergics” (priority 2000, published 2002).

Assays:
CF-1 mice = assay: Hotplate analgesia test after intrathecal injection; assay type: in vivo; conditions: 2.5 nmol intrathecal, 55 C hotplate
Procedure: Intrathecal (it) drug injections are performed as described by Hylden et al. (1980). CGX-031-120 (2.5 nmol) or water vehicle is administered to CF-1 mice (five mice per group) in a volume of 5 μl. Twenty minutes after injection, the body temperature of each animal is determined. Thirty minutes after injection, each animal is placed on a 55 C. hotplate. The latency to the first response (flinch), a spinally mediated behavioral response, and the first hindlimb lick, a centrally organized motor response to acute pain, are recorded. Mice are removed from the hotplate after 60 seconds if no response is observed. Forty-five minutes after injection, motor function for each mouse is tested by determining the latency to first fall from an accelerating rotarod.

mice = assay: Maximum electroshock (MES) seizure test; assay type: in vivo; conditions: i.p. 30 min before MES
Procedure: The in vivo activity of CGX-031-120 is analyzed using the maximum electroshock (MES) test as described by Syinyard et al. (1952) and Woodbury et al. (1952). In the MES procedure, a tonic seizure is produced in mice (17-26 g) by the delivery of a 50 milliamps current through corneal electrodes for 0.2 sec. Before testing, the animals are allowed food and water ad libitum. Compounds are injected i.p. 30 min before the MES. Reference compounds (such as phenytoin, carbamazepine, phenobarbital, and valproic acid) are tested at the peak of activity and at the dose range reported in the literature. Several mice are used per group. In this test anticonvulsive activity is indicated by the abolition of the hind limb tonic extension.

## CCC(=O)NCCc1c2n(c3ccc(OC)cc13)Cc1ccccc1-2 [CGX-031-120, N-propanol-2-(2-methoxy-6H-isoindolo-[2,1a]-indol-11-yl)-ethanamine]
CF-1 mice
  analgesic properties (hotplate): potent analgesic properties
mice
  anti-convulsant activity in the MES test: found to have anti-convulsant activity
